{
  "source": "patent US20120219536A1",
  "about": "“PURINE-TARGETED DIAGNOSIS AND THERAPY OF WOUNDS” (Queensland University of Technology, priority 2009, published 2012)",
  "key": {"xanthine oxidase": {"molecular_target": "T1, xanthine oxidase (Homo sapiens, UniProt P47989)", "T1 construct": "from tissue; host or cells: pooled chronic wound fluid (CWF), retentate of 3K ultrafiltration", "T1 sequence (P47989 whole entry)": "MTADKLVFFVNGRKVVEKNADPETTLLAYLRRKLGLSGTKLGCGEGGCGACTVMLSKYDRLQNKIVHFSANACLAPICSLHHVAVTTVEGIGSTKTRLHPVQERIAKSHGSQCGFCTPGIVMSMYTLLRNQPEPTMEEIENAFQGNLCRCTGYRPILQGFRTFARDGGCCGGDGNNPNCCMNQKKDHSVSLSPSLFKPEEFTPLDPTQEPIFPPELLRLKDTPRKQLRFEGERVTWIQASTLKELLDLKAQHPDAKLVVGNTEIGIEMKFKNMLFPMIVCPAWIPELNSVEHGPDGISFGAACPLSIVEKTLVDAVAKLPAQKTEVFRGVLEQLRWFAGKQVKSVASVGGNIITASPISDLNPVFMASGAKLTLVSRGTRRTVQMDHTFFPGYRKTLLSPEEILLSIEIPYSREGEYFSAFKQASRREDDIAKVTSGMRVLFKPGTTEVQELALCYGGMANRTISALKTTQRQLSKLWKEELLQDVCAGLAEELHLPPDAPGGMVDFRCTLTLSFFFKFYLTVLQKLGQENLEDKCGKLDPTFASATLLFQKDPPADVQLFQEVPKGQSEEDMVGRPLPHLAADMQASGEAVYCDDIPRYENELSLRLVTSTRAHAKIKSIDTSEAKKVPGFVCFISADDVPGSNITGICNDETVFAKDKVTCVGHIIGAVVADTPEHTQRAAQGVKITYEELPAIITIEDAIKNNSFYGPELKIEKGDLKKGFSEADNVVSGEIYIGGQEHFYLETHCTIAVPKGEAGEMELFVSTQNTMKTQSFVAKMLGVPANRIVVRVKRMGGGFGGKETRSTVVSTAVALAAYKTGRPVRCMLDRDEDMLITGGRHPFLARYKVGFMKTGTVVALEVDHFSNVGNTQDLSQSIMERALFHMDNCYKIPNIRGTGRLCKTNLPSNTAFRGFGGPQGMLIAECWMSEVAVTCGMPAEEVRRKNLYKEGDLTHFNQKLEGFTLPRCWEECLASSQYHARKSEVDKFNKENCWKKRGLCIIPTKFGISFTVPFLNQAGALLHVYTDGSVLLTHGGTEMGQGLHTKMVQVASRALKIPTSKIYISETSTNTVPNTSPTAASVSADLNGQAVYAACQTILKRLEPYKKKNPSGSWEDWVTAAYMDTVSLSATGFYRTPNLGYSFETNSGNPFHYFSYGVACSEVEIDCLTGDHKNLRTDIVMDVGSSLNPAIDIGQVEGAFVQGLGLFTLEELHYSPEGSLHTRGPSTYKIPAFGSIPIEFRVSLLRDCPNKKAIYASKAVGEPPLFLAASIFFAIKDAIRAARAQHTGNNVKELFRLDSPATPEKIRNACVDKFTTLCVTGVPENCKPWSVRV", "experiment": "Xanthine oxidase activity and inhibition in pooled chronic wound fluid (CWF), RP-HPLC", "assay_type": "biochemical", "conditions": "pooled CWF retentate, 10 μmol/L allopurinol, 37° C., 2.5 hr", "protocol": "Additionally, samples were treated with allopurinol, a specific XO inhibitor, and the production of the metabolite oxypurinol determined at A254. Firstly, CWF was concentrated by centrifugation using nanosep 3K omega filters (PALL) at 10,000 g for 10 min at 4° C. The retentate was resuspended with 10 mM Tris-HCl buffer, pH 8.0 containing either 10 μmol/L of xanthine or allopurinol, then incubated at 37° C. for 2.5 hr in the ultrafiltration unit. After incubation, the reaction mixture was de-proteinised as per the manufacturer's instructions and the resulting filtrates analysed using reverse phase HPLC as previously outlined.\nIn further support of this finding, XO enzyme inhibition was assayed using a potent XO inhibitor, allopurinol. Allopurinol is rapidly metabolised by XO to generate the active metabolite, oxypurinol, which itself is an inhibitor of XO. […] Western blotting confirmed the presence of the enzyme in wound fluid (data not shown)."}, "mice": {"test_system": "mice", "conditions": "cited from earlier work"}},
  "note": "Read-outs that look alike come from different tables or passages of the source.",
  "data": [
    {"substance": "1,4-dihydropyrazolo[4,3-d]pyrimidin-7-one [Allopurinol]", "values": [
      {"measurement": "production of the metabolite oxypurinol by XO", "setting": "xanthine oxidase; HPLC at A254", "value": "a peak consistent with the retention time of oxypurinol standard was detected"},
      {"measurement": "XO enzyme inhibition: production of uric acid", "setting": "xanthine oxidase; HPLC at A280", "value": "did not reveal a peak corresponding to uric acid"},
      {"measurement": "50% lethal dose (LD50)", "setting": "mice; given intraperitoneally", "value": 160, "unit": "mg/kg"},
      {"measurement": "50% lethal dose (LD50)", "setting": "mice; given orally", "value": 700, "unit": "mg/kg"}
    ]}
  ]
}
